These results are taken from patent US20170218389A1, “METHODS AND COMPOSITIONS FOR STOMATA REGULATION, PLANT IMMUNITY, AND DROUGHT TOLERANCE” (priority 2016, published 2017).

Assay [1] has as its system AtNHR1A. Nature of the assay: qRT-PCR of AtNHR1A expression in treated wild-type Col-0 plants. The class given is in vivo, Arabidopsis. The conditions noted are these: Col-0, syringe-infiltrated ABA 10 μM, 6 hpt, relative to 0 hr. How it is done: (§1) Total RNA was purified from Arabidopsis leaves infiltrated with water (mock control), nonhost pathogen P. syringae pv. tabaci (Psta), or host pathogen P. syringae pv. maculicola (Psm). Total RNA was extracted using TRIzol (Invitrogen, NT) and 2 treated or inoculated leaves were pooled to represent one biological replicate. Total RNA was treated with DNase I (Invitrogen, NY), and 1 μg RNA was used to generate cDNA using Superscript III reverse transcriptase (Invitrogen, NY) and oligo d(T)15-20 primers. The cDNA (1:20) was then used for qRT-PCR using Power SYBR Green PCR master mix (Applied Biosystems, Foster City, Calif., USA) with an ABI Prism 7900 HT sequence detection system (Applied Biosystems). Primers specific for AtUBQ5 were used to normalize small differences in template amounts. Average Cycle Threshold (CT) values calculated using Sequence Detection Systems (version 2.2.2; Applied Biosystems) from duplicate samples were used to determine the fold expression relative to controls.
(§2) The gene expression patterns of AtNHR1A and AtNHR1B were determined by quantitative RT-PCR (qRT-PCR) after treating wild-type Col-0 plants with ABA, PAMPs (Flg22 and LPS), host (P. syringae pv. maculicola) and nonhost (P. syringae pv. tabaci) bacterial pathogens. […]

Assay [2] deals with AtNHR1B. The conditions noted are these: both mesophyll cells and guard cells, 4 hrs of 100 μM ABA; cited from earlier work.
Assay [3] has as its system stomata of Arabidopsis epidermal peels. Nature of the assay: Stomatal aperture in epidermal peels of Col-0 and AtGCN4 overexpressor lines. The class given is cell-based. As to conditions: both wild-type Col-0 and AtGCN4 overexpressor lines, after ABA treatment. How it is done: A representative histogram is depicted of stomatal aperture in Arabidopsis plant epidermal peels from wild-type Col-0 and GCN4-overexpressing (AtGCN4-OE6 and AtGCN4-OE16) lines measured 4 hours after treatment with MES buffer, COR, ABA, or COR+ABA.
Upon detection of PAMPs, stomata rapidly closes to prevent entry of the pathogen into apoplast (Melotto et al., 2006; Lee et al., 2013). […] Epidermal peels of AtGCN4 overexpressing lines were used to investigate whether stomata reopen after treatment with MES buffer (stomata opening buffer; control) or the host pathogen P. syringae pv. tomato DC3000. In wild-type Col-0, stomata reopened 3 hpi, while in the AtGCN4 overexpressor lines (AtGCN4-OE6 and AtGCN4-OE16), stomata remained closed even 4 hpi with P. syringae pv. tomato DC3000. Stomatal aperture was measured after ABA and coronatine treatments in order to investigate stomatal function in AtGCN4 overexpressor lines. ABA treatment induces stomatal closure in plants. After ABA treatment, the stomatal aperture size was reduced due to closing in both wild-type Col-0 and the AtGCN4 overexpressor lines.

Assay [4] has the same test system. Nature of the assay: Stomatal closure / aperture in epidermal peels of NHR1A lines. The class given is cell-based. As to conditions: ABA 50 μM, flg22 20 μM. On the procedure:
FIG. 6A, FIG. 6B and FIG. 6C show ABA, PAMPs, host and nonhost bacterial pathogens induce AtNHR1A, AtNHR1B, and stomatal closure in an AtNHR1A-dependent manner. Histograms are depicted of AtNHR1A (FIG. 6A) and AtNHR1B (FIG. 6B) gene expression in Arabidopsis wild-type (Col-0) plants individually syringe-infiltrated with ABA (10 μM), Flg22 (20 μM), or LPS (100 ng), or flood-inoculated with the pathogens P. syringae pv. maculicola (Psm) and P. syringae pv. tabaci (Pst) at 1×10^4 cfu/mL. Bars indicate relative gene expression in comparison with the housekeeping gene UBQ5 and in relation to the 0 hr time-point. Different letters above bars indicate a statistically significant difference within a treatment (Student's t-test; p-value=0.05). Error bars represent the standard deviation of three biological replicates (three technical replicates for each biological replicate). Histograms are depicted quantifying stomatal aperture size from epidermal peels incubated with ABA (10 μM or 50 μM), Flg22 (20 μM), LPS (100 ng) and the nonhost pathogen Pst (1×10^6 cfu/mL), where aperture size was measured after 30 min for ABA, 1 hr for flg22 and 3 hrs for Pst (FIG. 6C). […]

Assay [5] deals with AtNHR1A. The conditions noted are these: 4 hrs of 100 μM ABA, cited from earlier work.
The test system of assay [6] is AtNHR1B. Nature of the assay: qRT-PCR of AtNHR1B expression in treated wild-type Col-0 plants. As to conditions: Col-0, 12 hpt; ABA 10 μM, Flg22 20 μM. Type of assay: in vivo, Arabidopsis. How it is done:
as §1, §2
On the technique in general: Real-time PCR tracks product formation cycle by cycle.

The subject of assay [7] is AtNHR1A. Nature of the assay: GTPase activity of AtNHR1A (GTP hydrolysis, phosphate release). Type of assay: biochemical, Arabidopsis. On the procedure:
FIG. 12A, FIG. 12B and FIG. 12C show NHR1A has GTPase activity and interacts with JAZ9 in Arabidopsis. A representative histogram is depicted showing that nhr1a is less sensitive to JA than Col-0, where roots were measured 7 days after seeds of different Arabidopsis lines were grown in MS medium plates with or without 30 μM of MeJA (FIG. 12A). Data represents three independent experiments with at least 10 seedlings per line. Bars represent the mean±SD. Asterisks indicate statistical significance (Student's t-test; p-value <0.05). A representative scatter-plot and histogram are depicted showing that the GTPase activity of NHR1A is reduced by JAZ9 as measured by the rate of phosphate (Pi) release when NHR1A protein (1 μM) was pre-loaded with GTP (1 mM) and incubated without (FIG. 12B) or with 0.25-1 μM of JAZ9 (FIG. 12C). Data represents three independent experiments. Bars represent the mean±SE.
To further examine the role of AtNHR1A, GTPase activity of AtNHR1A was assessed using purified protein in a fluorescence-based assay (Willard et al., 2005). […] This finding was quantified by measuring the phosphate (Pi) release, using the ENZchek® phosphate assay kit (Invitrogen®), after incubating NHR1A with different concentrations of JAZ9. […]
GTP binding and hydrolysis by AtNHR1A protein was measured using GTP-BODIPY-FL in real-time fluorescence assays in the presence of absence of JAZ9 protein. […]

For assay [8], the target named is T1, COI1 (Coronatine Insensitive 1) (Arabidopsis, UniProt O04197 1-592, limits assumed).
T1 construct: Expressed in Arabidopsis seedlings in the FAST assay; construct not described
T1 sequence (looked up): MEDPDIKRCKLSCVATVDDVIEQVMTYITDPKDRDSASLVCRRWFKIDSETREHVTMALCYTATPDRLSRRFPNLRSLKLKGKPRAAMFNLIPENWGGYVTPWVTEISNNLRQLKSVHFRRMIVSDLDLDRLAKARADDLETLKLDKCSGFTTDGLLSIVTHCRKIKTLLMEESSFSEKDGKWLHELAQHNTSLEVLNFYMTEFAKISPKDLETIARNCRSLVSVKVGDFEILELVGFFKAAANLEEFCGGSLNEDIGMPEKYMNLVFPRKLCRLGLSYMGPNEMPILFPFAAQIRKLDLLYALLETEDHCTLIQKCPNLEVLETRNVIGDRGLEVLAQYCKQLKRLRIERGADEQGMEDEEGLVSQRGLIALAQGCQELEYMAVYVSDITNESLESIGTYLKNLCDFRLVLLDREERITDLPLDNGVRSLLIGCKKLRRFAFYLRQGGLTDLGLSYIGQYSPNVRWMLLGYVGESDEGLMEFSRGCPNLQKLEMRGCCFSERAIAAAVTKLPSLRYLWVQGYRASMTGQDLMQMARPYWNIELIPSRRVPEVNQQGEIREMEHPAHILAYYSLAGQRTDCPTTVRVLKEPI
Nature of the assay: FAST (fast agro-mediated seedling transformation) assay in Arabidopsis Col-0 and nhr1a seedlings. The source says: Several JAZ proteins, such as JAZ1, JAZ2, JAZ3, JAZ6, JAZ9 and JAZ10, have been known to directly interact with COI1 in Arabidopsis (Chini et al., 2009; Melotto et al., 2008; Thines et al., 2007; Yan et al., 2009; Zhou et al., 2013). As shown above, NHR1A directly interacts with JAZ1, JAZ3, JAZ4, JAZ5, JAZ9 and JAZ12. Without being limited by theory, the present inventors hypothesize that the function of JAZ9 can be modified by binding NHR1A, and this may affect COI1-mediated signaling for stomatal closure. The fast agro-mediated seedling transformation (FAST) assay was used in Col-0 and nhr1a to investigate whether NHR1A was required for JAZ9-COI1 interaction.

For `CC1=CC(=O)CC(C)(C)[C@@]1(O)/C=C/C(C)=C\C(=O)O` [ABA, abscisic acid], in assay [1], the AtNHR1A induction entry was “twofold”. In assay [2], the “AtNHR1B transcripts vs water treatment” value is on record as “decreased”. Besides, the Stomatal aperture size entry in assay [3] was “reduced”. In addition, the Stomatal response entry in assay [4] (Atnhr1a mutant) is on record as “remained open”; in assay [4] (Col-0, NHR1A-OE and AtNHR1A-comp lines) it was “closed stomata”. For the same molecule, the “AtNHR1A transcripts vs water-treated control” value in assay [5] (Col-0 guard cells) is listed as “only a slight increase”. For the same molecule, the “AtNHR1A transcript level vs water-treated control” value in assay [5] (Col-0 mesophyll cells) was “approximately threefold”. Moreover, the AtNHR1B expression entry in assay [6] is given as “highly induced”.

B1: Jasmonate-Zim-Domain Protein 9 (JAZ9, At1g70700), full-length (other, Arabidopsis, UniProt Q8W4J8 1-267, looked up)
chain: MERDFLGLSDKQYLSNNVKHEVNDDAVEERGLSTKAAREWGKSKVFATSSFMPSSDFQEAKAFPGAYQWGSVSAANVFRRCQFGGAFQNATPLLLGGSVPLPTHPSLVPRVASSGSSPQLTIFYGGTISVFNDISPDKAQAIMLCAGNGLKGETGDSKPVREAERMYGKQIHNTAATSSSSATHTDNFSRCRDTPVAATNAMSMIESFNAAPRNMIPSVPQARKASLARFLEKRKERLMSAMPYKKMLLDLSTGESSGMNYSSTSPT
notes: GAL4 domain fusion in yeast two-hybrid, EYFP-half fusion in BiFC/FAST; the construct of the JAZ9 protein added to the GTPase assays is not described
Turning to B1, in assay [7] (0.75 μM and 1 μM of JAZ9, NHR1A 1 μM pre-loaded with GTP 1 mM), the “Reduction in phosphate release compared with AtNHR1A without JAZ9” value was 20%. The “Rate of GTP hydrolysis of AtNHR1A” value in assay [7] (in the presence of JAZ9) was “significantly decreased”. Moreover, the binding result in assay [8] is recorded as “binds”.
